Measured values from US20170114060A1 (priority 2014, published 2017).
“Also recorded” adds a separate entry of the source.

How the values were obtained:
CRAC/Orai1 channels = CRAC/Orai1 channels (Homo sapiens, UniProt Q96D31); assay type: cell-based
Ebola VP40 (eVP40) VLPs = assay type: cell-based
[1] = system: Marburg VP40 (mVP40) VLPs; assay type: cell-based
[2] = system: Junin virus (Candid-1 strain); assay type: cell-based
[3] = system: vesicular stomatitis virus (VSV); assay type: cell-based
VP40-APT/PY VLP budding = assay type: cell-based
LASV = assay type: cell-based, Lassa fever virus
JUNV = assay type: cell-based, Junin virus
MARV = assay type: cell-based, Marburg virus
EBOV = assay type: cell-based, Ebola virus
[4] = system: eVP40 GFP expressed in HEK cells; assay type: cell-based
[5] = system: Ebola VP40 induced intracellular calcium increase; assay type: cell-based
Influenza Virus A = assay type: cell-based
HEK293T cells [6] = system: HEK293T cells
HEK293T cells [7] = system: HEK293T cells; remark: listed apart in the source
HIV-1 = assay type: cell-based
retrovirus = conditions: cited from earlier work

Sequence of CRAC/Orai1 channels (Q96D31 whole entry): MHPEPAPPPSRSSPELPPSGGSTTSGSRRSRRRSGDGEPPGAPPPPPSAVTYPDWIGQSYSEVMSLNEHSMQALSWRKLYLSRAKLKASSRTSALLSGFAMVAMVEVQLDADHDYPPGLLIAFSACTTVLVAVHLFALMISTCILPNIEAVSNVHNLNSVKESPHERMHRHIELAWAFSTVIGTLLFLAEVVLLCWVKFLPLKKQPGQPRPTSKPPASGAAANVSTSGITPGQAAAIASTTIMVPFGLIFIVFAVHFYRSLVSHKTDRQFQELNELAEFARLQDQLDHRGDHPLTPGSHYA

## NCCOB(c1ccccc1)c1ccccc1 [2-APB, 2-aminoethoxydiphenylborate]
CRAC/Orai1 channels
  concentration that fully inhibited CRAC channels: 50 µM
  inhibition of store-operated Ca2+ entry via CRAC/Orai channels: block store operated Ca^2+ influx; also recorded: blocked; also recorded: blocks Ca^2+ entry following Tg stimulation without affecting its release from the ER; also recorded: inhibition of Ca^2+ entry via CRAC channels
Ebola VP40 (eVP40) VLPs
  effect on cellular eVP40 expression/accumulation: neither 2-APB nor Synta66 inhibited cellular accumulation
  inhibition of eVP40 VLP formation: inhibited eVP40 and mVP40 VLP budding
[1]
  effect on cellular mVP40 accumulation: neither 2-APB nor Synta66 inhibited cellular accumulation
  inhibition of mVP40 VLP budding: inhibited eVP40 and mVP40 VLP budding
[2]
  decrease in the number of foci formed by virions released from cells: 10 fold
  reduction of live Junin virus (Candid-1) foci / budding: a similar dose-dependent decrease in JUNV budding
[3]
  effect on cellular expression of VSV M protein: only a slight effect on cellular M protein expression; also recorded: little to no effect on cellular expression of VSV M protein
  inhibition of live VSV budding / titers: inhibited live VSV viral particle budding; also recorded: dose-dependent inhibition of VSV budding
VP40-APT/PY VLP budding
  sensitivity of Alix Bro1-V rescue of VLP production: 2-APB sensitive
VeroE6 cells
  viability of cells under conditions mimicking infection experiments: without effect on the viability of cells

## COc1ccc(OC)c(-c2ccc(NC(=O)c3ccncc3F)cc2)c1 [Synta66, N-(2′,5′-dimethoxy[1,1′-biphenyl]-4-yl)-3-fluoro-4-pyridinecarboxamide]
CRAC/Orai1 channels
  inhibition of store-operated Ca2+ entry via CRAC/Orai channels: blocks Ca^2+ entry following Tg stimulation without affecting its release from the ER; also recorded: inhibition of Ca^2+ entry via CRAC channels
Ebola VP40 (eVP40) VLPs
  effect on cellular eVP40 expression/accumulation: neither 2-APB nor Synta66 inhibited cellular accumulation
[1]
  effect on cellular mVP40 accumulation: neither 2-APB nor Synta66 inhibited cellular accumulation
[2]
  cellular expression of JUNV glycoprotein (GP): No effect
  reduction of live Junin virus (Candid-1) foci / budding: dose-dependent reduction in the number of Junin foci; also recorded: reduces the number of JUNV foci in a dose-dependent manner
[3]
  effect on cellular expression of VSV M protein: without affecting expression of VSV M
  inhibition of live VSV budding / titers: dose-dependent inhibition of VSV budding; also recorded: inhibited VSV titers
  reduction in budding of live VSV: dose-dependent reduction in budding of live Vesicular Stomatitis Virus
LASV
  inhibition of live LASV budding and spread: steep dose-dependent inhibition; also recorded: dose-dependent reduction
JUNV
  inhibition of live JUNV budding and spread: steep dose-dependent inhibition; also recorded: dose-dependent reduction
MARV
  inhibition of live MARV budding and spread: steep dose-dependent inhibition; also recorded: dose-dependent reduction
EBOV
  inhibition of live EBOV budding and spread: steep dose-dependent inhibition; also recorded: dose-dependent reduction
[4]
  VP40-induced membrane protrusions / VLP structures at the plasma membrane: not prevelant; also recorded: inhibits the formation of VP40-induced membrane protrusions; also recorded: inhibition of EBOV VP40 protrusions from the plasma membrane; also recorded: reduces Ebola VP40-mediated virus-like particle formation at the plasma membrane
  VP40 expression and membrane localization: no difference in membrane localization of eVP40; also recorded: no apparent effect on VP40 expression or membrane localization; also recorded: does not result in altered expression of Ebola VP40 (green) at the plasma membrane

## CC(=O)N[C@@H](CS)C(=O)O [NAC, N-acetyl cysteine]
[5]
  block of Ebola VP40 induced intracellular calcium increase: block the Ebola VP40 induced intracellular calcium increase

## CC1=C(c2cnc(NC(=O)c3c(F)cccc3F)cn2)CN(c2ncc(C)s2)CC1 [R02959, 2,6-difluoro-N-{5-[4-methyl-1-(5-methyl-thiazol-2-yl)-1,2,5,6-tetrahydro-pyridin-3-yl]-pyrazin-2-yl}-benzamide]
CRAC/Orai1 channels
  inhibition of store-operated Ca2+ entry via CRAC/Orai channels: blocks Ca^2+ entry following Tg stimulation without affecting its release from the ER
  potency as inhibitor of Orai1 relative to 2-APB or Synta66: ~10 fold
CRAC/Orai1 channels; 5 μM
  inhibition of Ca2+ entry via CRAC channels: inhibits Ca^2+ entry via CRAC channels
CRAC/Orai1 channels; concentrations <5 μM
  block of Ca2+ entry: 50-100 fold
Ebola VP40 (eVP40) VLPs
  effect on cellular eVP40 expression/accumulation: without any effect on cellular VP40 expression
  inhibition of eVP40 VLP formation: dose dependent inhibition of eVLP formation
Ebola VP40 (eVP40) VLPs; concentrations <5 μM
  block of eVP40 production: 50-100 fold

## Cc1cc(Cc2cc(C)cc(C(C)(C)C)c2O)c(O)c(Cc2cc(C)cc(C(C)(C)C)c2O)c1 [NSC 62914]
[5]
  block of Ebola VP40 induced intracellular calcium increase: block the Ebola VP40 induced intracellular calcium increase

## C[C@H](CCC(=O)O)C[C@H](C)C[C@H](C)C(=O)/C=C(\O)[C@H](C)C[C@H](C)C/C=C/[C@@H](C)[C@@H](O)[C@@H](C)[C@@H](O)C[C@@H]1CC[C@@](C)([C@H]2CC[C@@](C)([C@@H](C)O)O2)O1 [ionomycin]
VP40-APT/PY VLP budding
  rescue of VP40-APT/PY VLP budding mediated by the Bro1-V fragment of Alix: did not enhance rescue

## c1ccc(C(c2ccccc2)c2noc(C3CCNCC3)n2)cc1 [FC-2121]
CRAC/Orai1 channels
  inhibition of store-operated Ca2+ entry via CRAC/Orai channels: partial dose-dependent inhibition of Tg-induced calcium entry; also recorded: can block calcium influx into cells via Orai; also recorded: reduce Orai-mediated calcium entry
Ebola VP40 (eVP40) VLPs
  inhibition of eVP40 VLP formation: a corresponding inhibition of VLP formation; also recorded: successful inhibition of Ebola VP40 VLP production
Influenza Virus A
  reduction of live Influenza Virus A budding: reduce live Influenza Virus A budding
HEK293T cells [6]
  cell viability / cytotoxicity (MTT): without cell toxicity
HEK293T cells [7]
  cytotoxicity: not cytotoxic
MDCK cells
  cytotoxicity: not cytotoxic

## Cc1cc(CC(C(=O)O)c2ccc(Cl)cc2)nn1-c1ccc(Cl)cc1 (stereo not drawn) [FC-2399, 2-(4-Chloro-phenyl)-3-[1-(4-chloro-phenyl)-5-methyl-1H-pyrazol-3-yl]-propionic acid]
CRAC/Orai1 channels
  inhibition of store-operated Ca2+ entry via CRAC/Orai channels: reduce Orai-mediated calcium entry
[3]
  inhibition of live VSV budding / titers: significantly reduced budding of live Vesicular Stomatitis Virus in vitro in a dose-dependent manner
Influenza Virus A
  reduction of live Influenza Virus A budding: reduce live Influenza Virus A budding
HIV-1
  inhibition of budding of live HIV-1: reduces budding of live HIV-1

## Cc1c(CC(C(=O)O)c2ccccc2)nn(-c2ccccc2)c1-c1ccccc1 (stereo not drawn) [FC-2122, 3-(4-methyl-1,5-diphenyl-1H-pyrazol-3-yl)-2-phenylpropanoic acid]
CRAC/Orai1 channels
  inhibition of store-operated Ca2+ entry via CRAC/Orai channels: partial dose-dependent inhibition of Tg-induced calcium entry; also recorded: inhibits Orai-mediated calcium entry; also recorded: can block calcium influx into cells via Orai
Ebola VP40 (eVP40) VLPs
  cellular eVP40 expression: not different from mock treated cells
  concentrations at which VP40 expression inhibited: above 10 μM
  inhibition of eVP40 VLP formation: a corresponding inhibition of VLP formation; also recorded: decreased to a comparable extent as by 2-APB; also recorded: inhibits; also recorded: successful inhibition of Ebola VP40 VLP production
Influenza Virus A
  reduction of live Influenza Virus A budding: reduce live Influenza Virus A budding
HIV-1
  inhibition of budding of live HIV-1: did not inhibit budding of live HIV-1
HEK293T cells [6]
  cell viability / cytotoxicity (MTT): without cell toxicity
HEK293T cells [7]
  cytotoxicity: not cytotoxic
MDCK cells
  cytotoxicity: not cytotoxic

## Nc1ccc(C(=O)Nc2cccc(-c3nc(N4CCOCC4)c4oc5ncccc5c4n3)c2)cn1 [YM201636]
Ebola VP40 (eVP40) VLPs
  inhibition of eVP40 VLP formation: dose-dependent reduction of Ebola VP40 VLP production
retrovirus
  retrovirus budding: inhibited retrovirus budding
